From patent US8106055B2, “Substituted amide compounds” (Gruenenthal GmbH, priority 2007, dated 2012)

What was measured:
human μ opiate receptor = target: T1, human μ opiate receptor (Homo sapiens, UniProt P35372); assay: Affinity for the human μ opiate receptor ([3H]-naloxone displacement, CHO-K1 receptor membrane preparation, SPA); type: binding; settings: test concentration of 1 μM; read-out: μ (binding on the μ opioid receptor, % inhibition)
T1 construct: purchased PerkinElmer Life Sciences, Zaventem, Belgium RB-HOM; host or cells: CHO-K1 cells (membrane preparation)
In short: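 Scintillation proximity binding on human μ receptor membranes from CHO-K1 cells used 1 nmol/l [3H]-naloxone over 90 min at room temperature in 50 mmol/l Tris-HCl, 0.06% BSA. Percent inhibition was recorded at 1 μM.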

[1] = target: T2, serotonin (5-HT) reuptake (Rattus norvegicus, UniProt P31652); assay: Inhibition of serotonin (5HT) reuptake in synaptosomes from rat brain; type: biochemical; settings: test concentration of 10 μM; read-out: 5-HT (inhibition of reuptake of serotonin, % inhibition)
T2 construct: synaptosomes are freshly isolated from areas of the rat brain; from tissue; host or cells: rat brain synaptosomes (P2 fraction)
In short: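 Freshly isolated rat brain synaptosomes (P2 fraction) used for 5-HT reuptake. Test compound at 10 μM, activity given as % inhibition.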

T1 sequence (P35372 whole entry): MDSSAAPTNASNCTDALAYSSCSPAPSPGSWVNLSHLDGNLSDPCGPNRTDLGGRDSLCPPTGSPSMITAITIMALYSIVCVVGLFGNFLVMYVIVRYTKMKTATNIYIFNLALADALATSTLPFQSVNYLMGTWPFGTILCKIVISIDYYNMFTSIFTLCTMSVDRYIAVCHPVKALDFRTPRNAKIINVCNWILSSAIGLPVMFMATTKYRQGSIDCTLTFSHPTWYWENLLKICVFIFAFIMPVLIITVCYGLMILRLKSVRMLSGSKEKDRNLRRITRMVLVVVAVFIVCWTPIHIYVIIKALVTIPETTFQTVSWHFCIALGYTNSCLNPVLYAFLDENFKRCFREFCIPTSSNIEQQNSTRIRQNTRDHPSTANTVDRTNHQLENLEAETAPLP
T2 sequence (P31652 whole entry): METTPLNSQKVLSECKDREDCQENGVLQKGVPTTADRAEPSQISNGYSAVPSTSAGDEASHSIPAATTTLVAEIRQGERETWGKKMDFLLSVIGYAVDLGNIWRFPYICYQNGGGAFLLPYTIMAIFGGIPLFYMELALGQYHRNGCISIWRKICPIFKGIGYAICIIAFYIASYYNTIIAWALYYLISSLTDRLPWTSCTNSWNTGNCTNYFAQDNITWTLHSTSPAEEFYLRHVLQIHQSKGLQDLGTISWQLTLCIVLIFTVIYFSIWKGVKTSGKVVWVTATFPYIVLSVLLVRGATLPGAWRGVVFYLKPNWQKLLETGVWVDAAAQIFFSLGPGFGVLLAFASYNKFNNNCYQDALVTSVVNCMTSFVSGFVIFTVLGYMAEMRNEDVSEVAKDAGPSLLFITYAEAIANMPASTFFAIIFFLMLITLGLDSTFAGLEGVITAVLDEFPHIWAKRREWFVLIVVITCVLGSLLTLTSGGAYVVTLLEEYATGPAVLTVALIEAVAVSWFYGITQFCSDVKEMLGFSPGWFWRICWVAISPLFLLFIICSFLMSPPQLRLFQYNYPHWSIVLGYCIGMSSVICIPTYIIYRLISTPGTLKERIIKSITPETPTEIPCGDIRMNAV

SMILES	inhibition at 1 µM (human μ opiate receptor)	inhibition at 10 µM [1]
Cc1cc(C)c(S(=O)(=O)N2CCC(OCC(=O)NC3CCC(C(c4cccs4)N(C)C)CC3)C2)c(C)c1 (stereo not shown) [Example 12, N-(4-((dimethylamino)(thiophen-2-yl)methyl)cyclohexyl)-2-(1-(mesitylsulfonyl)pyrrolidin-3-yloxy)acetamide]	98%	79%
CN(C)C(c1cccs1)C1CCC(CNC(=O)COC2CCCCC2N(C)S(=O)(=O)c2ccc(Cl)c(Cl)c2)CC1 (stereo not shown) [Example 31, 2-(2-(3,4-dichloro-N-methylphenylsulfonamido)cyclohexyloxy)-N-((4-((dimethylamino)(thiophen-2-yl)methyl)cyclohexyl)methyl)acetamide]	97%	88%
COc1cc(C)c(S(=O)(=O)N(C)CCOCC(=O)NCCC2CCC(C(c3cccc(F)c3)N(C)C)CC2)c(C)c1 (stereo not shown) [Example 197, N-(2-(4-((dimethylamino)(3-fluorophenyl)methyl)cyclohexyl)ethyl)-2-(2-(4-methoxy-N,2,6-trimethylphenylsulfonamido)ethoxy)acetamide]	85%	85%
COc1cc(C)c(S(=O)(=O)N(C)CCOCC(=O)NCCC2CCC(C(c3cccc(F)c3)N(C)C)CC2)c(C)c1C (stereo not shown) [Example 183, N-(2-(4-((dimethylamino)(3-fluorophenyl)methyl)cyclohexyl)ethyl)-2-(2-(4-methoxy-N,2,3,6-tetramethylphenylsulfonamido)ethoxy)acetamide]	83%	93%
COc1ccc(S(=O)(=O)N2Cc3ccccc3CC2COCC(=O)NCC2CCC(C(c3ccccc3)N(C)C)CC2)cc1 (stereo not shown) [Example 19, N-((4-((dimethylamino)(phenyl)methyl)cyclohexyl)methyl)-2-((2-(4-methoxyphenylsulfonyl)-1,2,3,4-tetrahydroisoquinolin-3-yl)methoxy)acetamide]	98%	92%
CN(C)C(c1cccc(F)c1)C1CCC(NC(=O)COCCN(Cc2ccccc2)S(=O)(=O)c2ccccc2)CC1 (stereo not shown) [Example 175, 2-(2-(N-benzylphenylsulfonamido)ethoxy)-N-(4-((dimethylamino)(3-fluorophenyl)methyl)cyclohexyl)acetamide]	85%	97%
COc1cc(C)c(S(=O)(=O)N(CCOCC(=O)NCCC2CCC(C(c3cccs3)N(C)C)CC2)Cc2ccccc2)c(C)c1 (stereo not shown) [Example 149, 2-(2-(N-benzyl-4-methoxy-2,6-dimethylphenylsulfonamido)ethoxy)-N-(2-(4-((dimethylamino) (thiophen-2-yl)methyl)cyclohexyl)ethyl)acetamide]	91%	91%
CN(C)C(c1cccs1)C1CCC(NC(=O)COC2CCN(S(=O)(=O)c3ccccc3)C2)CC1 (stereo not shown) [Example 194, N-(4-((dimethylamino)(thiophen-2-yl)methyl)cyclohexyl)-2-(1-(phenylsulfonyl)pyrrolidin-3-yloxy)acetamide]	83%	86%
COc1cc(C)c(S(=O)(=O)N2CCCC(OCC(=O)NCC3CCC(C(c4cccc(F)c4)N(C)C)CC3)C2)c(C)c1C (stereo not shown) [Example 145, N-((4-((dimethylamino)(3-fluorophenyl)methyl)cyclohexyl)methyl)-2-(1-(4-methoxy-2,3,6-trimethylphenylsulfonyl)piperidin-3-yloxy)acetamide]	87%	91%
CN(C)C(c1ccccc1)C1CCC(CNC(=O)COC2CCN(S(=O)(=O)c3ccccc3)C2)CC1 (stereo not shown) [Example 195, N-((4-((dimethylamino)(phenyl)methyl)cyclohexyl)methyl)-2-(1-(phenylsulfonyl)pyrrolidin-3-yloxy)acetamide]	83%	101%
COc1cc(C)c(S(=O)(=O)N2CCC(OCC(=O)NC3CCC(C(c4ccccc4)N(C)C)CC3)C2)c(C)c1 (stereo not shown) [Example 165, N-(4-((dimethylamino)(phenyl)methyl)cyclohexyl)-2-(1-(4-methoxy-2,6-dimethylphenylsulfonyl)pyrrolidin-3-yloxy)acetamide]	87%	20%
